Experimental data reported in patent US20210030703A1, “USE OF CALORIC RESTRICTION MIMETICS FOR POTENTIATING CHEMO-IMMUNOTHERAPY FOR THE TREATMENT OF CANCERS” (INSERM (INSTITUT NATIONAL DE LA SANTÉ ET DE LA RECHERCHE …, priority 2018, published 2021).

Key:
MCA205 fibrosarcoma [1] = assay: Subcutaneous MCA205 fibrosarcoma: tumor growth, cure and survival under chemo-immunotherapy; type: in vivo, C57B1/6 mice; settings: for Complete responses leading to tumor eradication: endpoint 50 days after chemotherapy; for Efficacy of MTX + ICIs (anti-PD-1 plus anti-CTLA-4) chemo-immunotherapy when the CRM is added: figure legends FIG. 2, 3, 4, 6
Protocol: Mouse strain and housing. Six- to 8-week-old wild-type female C57B1/6 mice were obtained from Envigo RMS SARL (Gannat, France). Animals were maintained in specific pathogen-free conditions in a temperature-controlled environment with 12 h light, 12 h dark cycles and received food and water ad libitum (unless precised otherwise). Animal experiments were in compliance with the EU Directive 63/2010 and approved by the Ethical Committee of the Cordeliers Research Center (Paris, France). All mouse experiments were randomized and blinded, and sample sizes were calculated to detect a statistically significant effect.
In vivo experimentations. Tumor engraftment was performed through subcutaneous injection of 3×10^5 MCA205 fibrosarcoma tumor cells (in 100 μl PBS) in the right flank of the mice. Tumor volume was monitored using a digital caliper and calculated according to the formula: volume=length×width×height/8×4/3 pi. When tumor reached 20 mm^3 on average, mice underwent fasting (48 hours without food but ad libitum access to water) or were given caloric restriction mimetics (CRMs) such as aspirin (Asp; 10 mg/kg i.p. in 200 μl phosphate buffered saline [PBS] five times per week), hydroxycitrate (HC; 5 mg/ml in drinking water daily) or spermidine (Spd; 50 mg/kg i.p. in 200 μl Earle's balanced salt solution three times per week), or were treated with mitoxantrone (MTX; 5.17 mg/kg i.p. in 200 μl PBS), or with the immune checkpoint inhibitors (ICIs) anti-PD-1 (10 mg/kg i.p. in 200 μl PBS) and/or anti-CTLA-4 (5 mg/kg i.p. in 200 μl PBS). Tumor size was carefully monitored up to 50 days post-MTX. Antitumor immunity induced by the treatment in cured mice was challenged by subcutaneously re-engrafting the same tumor (3×10^5 syngeneic MCA205 fibrosarcoma cells) in one flank while an antigenically unrelated cancer (3×10^5 syngeneic TC1 lung carcinoma cells) was implanted into the contralateral flank.
Statistical analyses. For tumor size comparison, Student unpaired t test or one-way ANOVA (Holm-Sidak) were performed. All statistical analyses were performed using GraphPad Prism version 6 for Windows (GraphPad Software, La Jolla, Calif., USA). Differences were considered significant when p value<0.05.

mammary carcinomas = assay: Hormone-induced (MPA/DMBA) orthotopic mammary tumor model; type: in vivo, BALB/c mice; settings: combination of MTX-based chemotherapy and HC, versus MTX and HC alone; data not shown
Excerpt: Breast cancers were induced in young (7-weeks-old) female BALB/c mice by implantation of medroxyprogesterone acetate (MPA)-releasing pellets followed by gavage with the DNA damaging agent 7,12-Dimethylbenz[a]anthracene (DMBA) for the following 6 weeks. Note that the interval between the last DMBA injection and the manifestation of palpable breast cancer lesions is rather variable. When palpable tumors appeared, mice were randomized into the different experimental groups and treated with intraperitoneal injections of hydroxycitrate (100 mg/kg) at d-1 and d0 and/or intraperitoneal injections of 5.17 mg/kg of Mitoxantrone. Neutralizing anti-CD11b antibodies (clone M1/70, ref BE0007 from BioXCell™) or their isotype control (clone LTF-2, ref BE0090 from BioXCell™) were then injected at d-1, d0 and d7. Tumor growth was followed by calculating tumor surface (mm^2) with the formula length×width.

[2] = tested on: immune infiltrate of MCA205 tumors; assay: Immunophenotyping of the tumor immune infiltrate by flow cytometry; type: in vivo, C57B1/6 mice; settings: for Density of CD45+ leukocytes in the tumor: day 11 post-chemotherapy
Protocol: 3 or 11 days post-chemotherapy (d3 or d11), mice were euthanized and the tumors were withdrawn and placed in gentleMACS C tubes (ref 130-096-334 from Miltenyi BiotecTM) previously filled with 1 ml of DMEM or RPMI medium, and immediately put on ice. […] Then, cells were stained with a live dead dye (ref L34959 from ThermoFisher ScientificTM) and an FCblock receptor targeting antibody. For the surface stainings, several anti-mouse fluorochrome-coupled antibodies were employed, that were for 1) myeloid cells “staining 1”: anti-CD45 APC-Fire750 (clone 30E-11, ref 130154 BiolegendTM), anti-Ly-6G PE (clone 1A8, ref 551461 BDTM), anti-Ly-6C FITC (clone AL-21, ref 553104, BDTM), anti-CD11b V450 (clone M1/70, ref 560455 BDTM), anti-CD11c PE-Cy7 (clone HL3, ref 558470 BDTM), anti-CD80 PerCP-Cy5.5 (16-10A1, ref 104722 BiolegendTM), and anti-MHC-II APC (clone M5/114.15.2, ref 107614 BiolegendTM) 2) T-cells “staining 2”: anti-CD3 APC (clone 17A2, ref 17-0032-82 eBioscienceTM), anti-CD8 PE (clone 53-6.7, ref 553032 BDTM), anti-CD4 PerCP-Cy5.5 (clone RM4-5, ref 45-0042-82 eBioscienceTM), anti-CD25 PE-Cy7 (clone PC61.5, ref 25-0251-82 InvitrogenTM), anti-ICOS BV421 (clone 7E.17G9, ref 564070 BDTM) and anti-PD-1 APC-Fire750 (clone 29F.1Al2, ref 135240 BiolegendTM) 3) PD-L1 expressing-cells “staining 4”: anti-CD45 AlexaFluor647 (clone 30E-11, ref 103-124 BiolegendTM), anti-PD-L1 BV421 (clone MIHS, ref 564716 BDTM) and anti-PD-L2 PE-Dazzle594 (clone TY25, ref 107215 BiolegendTM) 4) NKT cells “staining 5”: anti-CD3 FITC (clone 17A2, ref 11-00-32-82 eBioscienceTM) and anti-NK1.1 PerCP-Cy5.5 (clone PK136, ref 551114 BDTM). After the fixation and permeabilization of the cells (thanks to the Cytofix/Cytoperm kit, ref 554714 BDTM for stainings 1, 3, 4 and 5; and with the Foxp3/Transcription Factor kit, ref 00-5523-00 eBioscienceTM for staining 2), intracellular stainings were performed using for “staining 2”: anti-FoxP3 FITC (clone FJK-16s, ref 11-5773-82 eBioscienceTM) and for “staining 3”: anti-IFNg APC (clone XMG1.2, ref 505-810 BiolegendTM), anti-TNFα APC-Cy7 (clone MP6-XT22, ref 506344 BiolegendTM) and anti-IL-2 PE-Dazzle 594 (clone JES6-5H4, ref 503-840 BiolegendTM). Finally, cells were resuspended in FACS buffer and analyzed on a flow cytometer BD LSR II.

[3] = background, reference (9); cited from earlier work
MCA205 fibrosarcoma [4] = assay: Subcutaneous MCA205 fibrosarcoma: tumor growth, cure and survival under chemo-immunotherapy; type: in vivo, C57B1/6 mice
[5] = HC + MTX chemotherapy + immunotherapy (anti-PD-1 plus anti-CTLA-4)
[6] = day 11 post-MTX, data not shown

In the case of `O=C(O)CC(O)(C(=O)O)C(O)C(=O)O` (centres unmarked) [HC, hydroxycitrate], the “Complete responses at day 30” value (MCA205 fibrosarcoma [1]; [5]) is reported as “all animals of the group”, the Stable response (MCA205 fibrosarcoma [1]; [5]) is reported as 7 out of 8 and the “Reduction of tumor growth” value (MCA205 fibrosarcoma [1]; HC in drinking water + MTX chemotherapy + immunotherapy, versus all other groups) is reported as “more efficient in reducing tumor growth than all other groups”. For the same molecule, the “Reduction of tumor growth and prolongation of survival” value (MCA205 fibrosarcoma [1]; HC+MTX versus MTX alone, data not shown) was “more successful in reducing tumor growth and in prolonging survival than MTX alone”, the “Complete responses leading to tumor eradication” value (shortened to “Complete responses leading”) (MCA205 fibrosarcoma [1]; MTX plus HC) was “either not seen at all or rare” and the Tumor-free mice (MCA205 fibrosarcoma [1]; MTX pre-treatment associated with the CRM, then CTLA-4/PD-1-blocking antibodies (FIG. 6)) was 7 out of 10. For the same molecule, the “Efficacy of MTX + ICIs (anti-PD-1 plus anti-CTLA-4) chemo-immunotherapy when the CRM is added” value (MCA205 fibrosarcoma [1]) was “further enhanced”, the “Efficacy of MTX + ICIs (anti-PD-1 plus anti-CTLA-4) chemo-immunotherapy when the CRM is added” value (MCA205 fibrosarcoma [1]; listed as Hydroxycitrate) was “enhances tumor growth control” and the “Response to CTLA-4/PD-1-blockade” value (MCA205 fibrosarcoma [1]; pretreated with the CRM alone (without MTX), data not shown) was “did not respond”. The “Reduction of tumor growth and prolongation of mouse survival” value (mammary carcinomas) was “highly efficient in reducing tumor growth and prolonging mouse survival”, the “Increase in the density of total CD3+ and CD8+ T cell infiltrate” value ([2]; combined with MTX, data not shown) was “neither HC nor spermidine” and the Myeloid infiltrate ([2]; day 3 post-chemotherapy (MTX), data not shown) was “no major increments”. The “Granulocyte infiltration (Ly6C+Ly6Ghi)” value [2, 6] was “increase”, the “Monocytic dendritic cell subpopulation with activation markers (Ly6G-Ly6ChiCD11b+CD11c+CD80+MHC-IIhi)” value [2, 6] was “increase” and the “Density of CD45+ leukocytes in the tumor” value ([2]; MTX-treated animals that received HC) was “more so”. For the same molecule, the “Efficacy of anticancer chemotherapy with immunogenic cell death (ICD) inducers” value [3] was “able to improve the efficacy”, the Cure rate (MCA205 fibrosarcoma [4]; CRM added to OXA+PD-1 blockade) was 80% and the Cured mice (MCA205 fibrosarcoma [4]; CRM added to OXA+PD-1 blockade) was 16 out of 20. The “Efficacy of OXA and anti-PD-1 combination when the CRM is added” value (MCA205 fibrosarcoma [4]; figure legend FIG. 7) was “further enhanced”.
For `O=C1c2c(O)ccc(O)c2C(=O)c2c(NCCNCCO)ccc(NCCNCCO)c21` [MTX, mitoxantrone], the “Complete responses leading” value (MCA205 fibrosarcoma [1]; MTX plus immunotherapy (antibodies blocking CTLA-4 or PD-1)) was “either not seen at all or rare”, the “Complete responses leading” value (MCA205 fibrosarcoma [1]; MTX plus isotypes) was “either not seen at all or rare” and the Complete cure (MCA205 fibrosarcoma [1]; MTX pretreatment, then CTLA-4/PD-1-blocking antibodies from day 8 post-chemotherapy (FIG. 6)) was 3 out of 10. The “Density of CD45+ leukocytes in the tumor” value ([2]; MTX-treated cancers) was “higher density”.
